Reference: patent publication US20190323025A1, “COMPOSITIONS AND METHODS FOR DELIVERY OF MOLECULES TO PLANTS” (BLOOMSBURG UNIVERSITY OF PENNSYLVANIA, priority 2018, published 2019)

What was measured:
[1] = tested on: AvsYS1 avenic acid/Fe+3 transporter; experiment: Yeast growth assay in liquid medium with phytosiderophore/Fe+3 complex as the only available iron, strain DEY1453 transformed with pJKD1 (pYES2/AvsYS1) or pYES2; type: cell-based, Avena sativa; settings: for growth of yeast with transporter (DEY1453:pJKD1, 53K): S. cerevisiae DEY1453:pJKD1 (pYES2/AvsYS1), YNB minimal medium pH 7.5, BPDS, iron only as Fe+3 complexed with the substance
Text: AvsYS1 (Genbank FJ477297.1) was isolated using 5′RACE from the roots of iron starved oats (Avena sativa). Primers were designed by comparing one functionally confirmed phytosiderophore/Fe^+3 transporter (HvYS1) and other iron transport proteins. After obtaining a full-length clone, we subcloned the gene (AvsYS1) into a yeast galactose inducible expression vector (pYES2). The resultant plasmid was designated pJKD1. We obtained a yeast strain that lacks the ability to take up ferric iron and transformed it with pYES2 and pJKD1. The transformants were grown under identical conditions in which the only iron available was in the Fe^+3/avenic acid complex.
We engineered the AvsYS1 gene into a galactose inducible expression systems vector (pYES2). Our first major result was the functional confirmation of the AvsYS1 gene. We transformed pYES2 and pJKD1 (pYES2/AvsYS1) into a strain of S. cerevisiae (DEY1453) that lacks the ability to take up Fe^3+. In the process, we developed a new assay based on growth in liquid medium. The advantage of this assay over more traditional assays used in yeast-based PS/Fe^+3 assays is that it is quantifiable. Other assays (e.g., Murata, 2006) grow yeast on a solid plate, and qualitative growth of colonies is used. With our assay, we can generate numerical data based on the density as measured by the absorbance at 600 nm. […] Further detail is provided below.
53Y=DEY1453:pYES2 (no transporter) 53K=DEY1453:pJKD1 (pYES2/AvsYS1 [transporter]) DOB—Complete medium, supplemented w/FeSo4, ampicillin 50 YNB-minimal medium, pH7.5, BPDS (ferrous chelator), ampicillin,
Protocols included: 53Y and 53K in DOB+FeSO4, 53Y and 53K in YNB supplemented with Avenic acid; 53Y and 53K supplemented with BPA-1-068B; 53Y and 53K in YNB w/ no supplements; uninoculated YNB; uninoculated DOB.
53Y=DEY1453:pYES2 (no transporter) 53K=DEY1453:pJKD1 (pYES2/AvsYS1 [transporter]) DOB—Complete medium, supplemented w/FeSo4, ampicillin 50 YNB-minimal medium, pH7.5, BPDS (ferrous chelator), ampicillin, Ø=no supplementation
Protocols included: 53Y and 53K, supplemented with Avenic acid, 53Y and 53K supplemented with BPA-1-068B, 53Y and 53K in YNB w/ no supplements.
3Y=DEY1453:pYES2 (no transporter) 3K=DEY1453:pJKD1 (pYES2/AvsYS1 [transporter]) Strains grown in YNB/Gal, pH 7.5, Amp50, Avenic acid: Fe^+3, 5:1
Another interesting observation was made in relation to growth of the DEY1453:pJKD1 using one of the analogs complexed with Fe^+3. […] This was a very significant result because it provided strong (though not dispositive) evidence in support of our Trojan Horse delivery technology.

[2] = tested on: Micro-Tom tomatoes, AvsYS1 transformants (MT*) and untransformed (MT); experiment: Hydroponic growth of Micro-Tom tomatoes under iron limiting conditions with iron provided as FeCl3/avenic acid; type: in vivo, tomato; settings: Hoagland's solution (-Fe), pH 7.4, 10 μM FeCl3 complexed with 15 μM avenic acid
Text: RNA was isolated from […]. A cDNA (AvsYSl) was isolated and its functionality confirmed as a phytosiderophore/Fe^+3 transporter that mitigates the effects of Iron Deficiency Chlorosis in transgenic Micro-Tom™ tomatoes when the nutrient medium is supplemented with the oat phytosiderophore, avenic acid. […] Final confirmation of the AvsYS1 transporter's functionality was obtained by comparing Micro-Tom™: AvsYS1 (MT*) transformants with non-transgenic Micro-Tom™ grown hydroponically under iron limiting conditions. (See, e.g., Shikata et al. (2016) “Micro-Tom tomato as an alternative plant model system: mutant collection and efficient transformation” Methods Mol. Biol. 1363:47-55.) Samples were grown in Hoagland's solution (—Fe) at pH 7.4. Iron was provided as 10 μM FeCl3/15 μM avenic acid. Tomatoes normally optimally grow at pH 5.6-6.8. Sample 3 was labelled MT*. This was a Micro-Tom™ variety was transformed with Fe+3/avenic acid transporter isolated from roots of iron starved oats. Sample 4 was an untransformed Micro-Tom™ (MT) plant.
MT* tomatoes grew robustly in Hoagland's solution at a pH of 7.4 supplemented with iron was provided at 10 μM FeCl3 complexed with 15 μM avenic acid.

For `O=C(CC(NCCC(NCC[C@H](O)C(=O)O)C(=O)O)C(=O)O)OCc1ccccc1` (stereo partly drawn) [BPA-1-068B], the “growth of yeast with transporter (DEY1453:pJKD1, 53K)” value (from here on “growth of yeast with transporter”) [1] was “able to grow”, the “growth of yeast with transporter” value ([1]; listed as drawing 7) was “impressive” and the “growth rate of DEY1453:pJKD1” value ([1]; ferric iron supplied with the analog, compared to DEY1453:pYES2 controls) was “slower, but undeniably robust”. The “uptake by the avenic acid transporter” value ([1]; yeast, in the presence of iron) was “able to be taken up”.
In the case of `O=C(O)C(CO)NCCC(NCC[C@H](O)C(=O)O)C(=O)O` (stereo partly drawn) [MGS-2-128BF], the “growth of yeast with transporter” value [1] is reported as “supported growth as well as avenic acid”.
In the case of `O=C(O)[C@H](CCO)NCC[C@H](NCC[C@H](O)C(=O)O)C(=O)O` [avenic acid, Avenic Acid], the “growth of MT* (AvsYS1 transformed) tomatoes” value ([2]; 16 days) is reported as “grew robustly”, the “iron deficiency chlorosis in untransformed (MT) tomatoes” value ([2]; after 16 days) is reported as “Iron deficiency chlorosis was observed in new leaves” and the “growth of yeast with transporter” value [1] is reported as “able to grow vigorously”. The “growth of yeast without transporter (DEY1453:pYES2, 53Y)” value ([1]; S. cerevisiae DEY1453:pYES2 (no transporter), iron only as Fe+3/avenic acid complex) was “could not”.
